Patent publication US20250002475A1 (EPICS THERAPEUTICS, priority 2023, published 2025)

Tests used:
[1] = system: Kasumi-1 cells; test: Kasumi-1 cellular viability assay (ATP-Lite, 72 h); type: cell-based; conditions: Homo sapiens, ATP-Lite luminescence, % viability relative to DMSO
In short: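 Viability was read by ATP-Lite One Step luminescence after 72 h compound treatment at 37 °C/5% CO2, normalised to DMSO control, with IC50 fitted from concentration-response. Cells were Kasumi-1 (AML FAB M2) at 15000 per well in RPMI-1640/10% FBS, 0.1% DMSO final.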

[2] = target: T1, recombinant METTL3/METTL14 complex (Homo sapiens, UniProt Q86U44); test: METTL3/14 Scintillation Proximity Assay (SPA), RNA methyltransferase activity; type: biochemical; conditions: 5.31 nM METTL3/14 complex, 250 nM RNA substrate, 1 μM 3H-SAM, 90 min; for compounds marked * best of the two separated forms
T1 construct: purchased Active Motif 311970; host or cells: Sf9 cells

[3] = system: Caov-3 cells; test: Caov-3 cellular viability assay (ATP-Lite, 72 h); type: cell-based; conditions: Homo sapiens, ATP-Lite luminescence, % viability relative to DMSO
In short: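 IC50 values come from concentration-response fits of luminescent ATP content (ATP-Lite One Step), normalised as % viability versus DMSO. Compound exposure was 72 h at 37 °C in RPMI-1640/10% FBS with 0.1% final DMSO. Wells held 10000 cells each.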

T1 sequence (Q86U44 whole entry): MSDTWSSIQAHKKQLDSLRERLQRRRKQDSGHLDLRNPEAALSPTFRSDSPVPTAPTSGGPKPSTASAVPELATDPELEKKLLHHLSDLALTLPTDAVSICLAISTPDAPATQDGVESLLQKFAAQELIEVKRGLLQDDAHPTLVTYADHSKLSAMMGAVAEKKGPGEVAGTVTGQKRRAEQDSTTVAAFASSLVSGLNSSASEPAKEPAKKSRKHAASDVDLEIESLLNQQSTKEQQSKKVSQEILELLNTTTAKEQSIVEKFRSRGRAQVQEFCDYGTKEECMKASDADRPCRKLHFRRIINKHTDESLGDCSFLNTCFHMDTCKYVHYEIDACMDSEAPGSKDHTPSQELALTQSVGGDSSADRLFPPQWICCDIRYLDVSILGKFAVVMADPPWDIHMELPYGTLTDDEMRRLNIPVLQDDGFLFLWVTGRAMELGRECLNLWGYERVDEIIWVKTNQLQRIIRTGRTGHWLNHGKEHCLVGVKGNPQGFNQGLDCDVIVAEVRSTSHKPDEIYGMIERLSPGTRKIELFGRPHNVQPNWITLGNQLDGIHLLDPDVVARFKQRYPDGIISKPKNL
T1 sequence (Q9HCE5 whole entry partner): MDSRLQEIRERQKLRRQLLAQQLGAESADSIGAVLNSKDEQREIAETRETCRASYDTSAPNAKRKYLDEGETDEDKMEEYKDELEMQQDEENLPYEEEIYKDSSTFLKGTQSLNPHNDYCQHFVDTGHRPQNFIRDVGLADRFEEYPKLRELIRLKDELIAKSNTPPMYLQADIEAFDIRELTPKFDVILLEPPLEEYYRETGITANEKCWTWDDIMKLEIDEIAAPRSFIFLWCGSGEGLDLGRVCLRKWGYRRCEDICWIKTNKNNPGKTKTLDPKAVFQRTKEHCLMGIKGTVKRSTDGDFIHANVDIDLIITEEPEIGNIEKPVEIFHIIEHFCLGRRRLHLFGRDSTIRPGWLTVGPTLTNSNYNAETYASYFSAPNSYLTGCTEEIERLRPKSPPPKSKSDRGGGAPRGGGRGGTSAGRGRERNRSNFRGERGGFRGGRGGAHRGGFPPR

Compound	IC50 [1] [nM]	IC50 [2] [nM]	IC50 [3] [nM]
COc1cncc(-c2cn(Cc3ccc(N4CCC[C@@H](NCC5CCC5)C4)nc3)nn2)c1 [Compound 086, (R)-N-(cyclobutylmethyl)-1-(5-((4-(5-methoxypyridin-3-yl)-1H-1,2,3-triazol-1-yl)methyl)pyridin-2-yl)piperidin-3-amine]	500 to 5000	≤ 50	500 to 5000
COc1cncc(-c2cn(Cc3ccc(N4CCC[C@@H](NCC5CCC5)C4)cn3)nn2)c1 [Compound 087, (R)-N-(cyclobutylmethyl)-1-(6-((4-(5-methoxypyridin-3-yl)-1H-1,2,3-triazol-1-yl)methyl)pyridin-3-yl)piperidin-3-amine]	500 to 5000	≤ 50	500 to 5000
COc1cncc(-c2cc(Cn3ccc(N4CCC[C@@H](NCC5CCC5)C4)cc3=O)n[nH]2)c1 [Compound 095, (R)-4-(3-((cyclobutylmethyl)amino)piperidin-1-yl)-1-((5-(5-methoxypyridin-3-yl)-1H-pyrazol-3-yl)methyl)pyridin-2(1H)-one]	500 to 5000	≤ 50	≤ 500
COc1cncc(-c2ncc(Cn3ccc(N4CCC[C@@H](NCC5CCC5)C4)cc3=O)s2)c1 [Compound 097, (R)-4-(3-((cyclobutylmethyl)amino)piperidin-1-yl)-1-((2-(5-methoxypyridin-3-yl)thiazol-5-yl)methyl)pyridin-2(1H)-one]	≤ 500	≤ 50	≤ 500
COc1cncc(-n2cc(Cn3ccc(N4CCC[C@@H](NCC5CCC5)C4)cc3=O)cn2)c1 [Compound 107, (R)-4-(3-((cyclobutylmethyl)amino)piperidin-1-yl)-1-((1-(5-methoxypyridin-3-yl)-1H-pyrazol-4-yl)methyl)pyridin-2(1H)-one]	≤ 500	≤ 50	≤ 500
COc1cncc(-c2cn([C@H](C)n3ccc(N4CCC[C@@H](NCC5CCC5)C4)cc3=S)nn2)c1 [Compound 116, 4-((R)-3-((cyclobutylmethyl)amino)piperidin-1-yl)-1-((R)-1-(4-(5-methoxypyridin-3-yl)-1H-1,2,3-triazol-1-yl)ethyl)pyridine-2(1H)-thione]	≤ 500	≤ 50	≤ 500
COc1cc(-c2cn(Cc3ccc(N4CCC[C@@H](NCC5CCC5)C4)cc3)nn2)c2cn[nH]c2c1 [Compound 123, (R)-N-(cyclobutylmethyl)-1-(4-((4-(6-methoxy-1H-indazol-4-yl)-1-1,2,3-triazol-1-yl)methyl)phenyl)piperidin-3-amine]	≤ 500	≤ 50	≤ 500
COc1cncc(-c2cn(C(C)n3ccc(N4CCC[C@@H](NCC5CCC5)C4)c(F)c3=O)nn2)c1 (stereo partly drawn) [Compound 126, 4-((R)-3-((cyclobutylmethyl)amino)piperidin-1-yl)-3-fluoro-1-(1-(4-(5-methoxypyridin-3-yl)-1H-1,2,3-triazol-1-yl)ethyl)pyridin-2(1H)-one]	> 5000	≤ 50	500 to 5000
COc1cncc(-c2cn(C3(c4ccc(N5CCC[C@@H](NCC6CCC6)C5)cc4)COC3)nn2)c1 [Compound 134, (R)-N-(cyclobutylmethyl)-1-(4-(3-(4-(5-methoxypyridin-3-yl)-1H-1,2,3-triazol-1-yl)oxetan-3-yl)phenyl)piperidin-3-amine]	≤ 500	≤ 50	≤ 500
CN(C)c1cncc(-c2cn(Cc3ccc(N4CCC[C@@H](NCC5CCC5)C4)cn3)nn2)c1 [Compound 139, (R)-5-(1-((5-(3-((cyclobutylmethyl)amino)piperidin-1-yl)pyridin-2-yl)methyl)-1H-1,2,3-triazol-4-yl)-N,N-dimethylpyridin-3-amine]	≤ 500	≤ 50	≤ 500
CN(C)c1cncc(-c2cn(Cc3ccc(N4CCC[C@@H](NCC5CCC5)C4)cc3)nn2)c1 [Compound 140]	≤ 500	≤ 50	≤ 500
COc1cncc(-c2cn(Cc3ccc(N4CCC[C@@H](NCC5CCC5)C4)cc3)cn2)c1 [Compound 144, (R)-N-(cyclobutylmethyl)-1-(4-((4-(5-methoxypyridin-3-yl)-1H-imidazol-1-yl)methyl)phenyl)piperidin-3-amine]	500 to 5000	≤ 50	500 to 5000
CN(C)c1cncc(-c2cn(C3(c4ccc(N5CCC[C@@H](NCC6CCC6)C5)cc4)COC3)nn2)c1 [Compound 148, (R)-5-(1-(3-(4-(3-((cyclobutylmethyl)amino)piperidin-1-yl)phenyl)oxetan-3-yl)-1H-1,2,3-triazol-4-yl)-N,N-dimethylpyridin-3-amine]	≤ 500	≤ 50	≤ 500
CN(C)c1cncc(-c2cn(C3(c4ccc(N5CCC[C@@H](NCC6CCC6)C5)cn4)COC3)nn2)c1 [Compound 149, (R)-5-(1-(3-(5-(3-((cyclobutylmethyl)amino)piperidin-1-yl)pyridin-2-yl)oxetan-3-yl)-1H-1,2,3-triazol-4-yl)-N,N-dimethylpyridin-3-amine]	≤ 500	≤ 50	≤ 500
COc1cncc(-c2cn(C3(c4ccc(N5CCC[C@@H](NCC6CCC6)C5)cn4)COC3)nn2)c1 [Compound 150, (R)-N-(cyclobutylmethyl)-1-(6-(3-(4-(5-methoxypyridin-3-yl)-1H-1,2,3-triazol-1-yl)oxetan-3-yl)pyridin-3-yl)piperidin-3-amine]	≤ 500	≤ 50	≤ 500
CC(n1cc(-c2cncc(N(C)C)n2)nn1)n1ccc(N2CCC[C@@H](NCC3CCC3)C2)cc1=O (stereo partly drawn) [Compound 164, 4-((R)-3-((cyclobutylmethyl)amino)piperidin-1-yl)-1-(1-(4-(6-(dimethylamino)pyrazin-2-yl)-1H-1,2,3-triazol-1-yl)ethyl)pyridin-2(1H)-one]	≤ 500	≤ 50	≤ 500
CC(c1nnc(-c2cncc(N(C)C)c2)s1)n1ccc(N2CCC[C@@H](NCC3CCC3)C2)cc1=O (stereo partly drawn) [Compound 171, 4-((R)-3-((cyclobutylmethyl)amino)piperidin-1-yl)-1-(1-(5-(5-(dimethylamino)pyridin-3-yl)-1,3,4-thiadiazol-2-yl)ethyl)pyridin-2(1H)-one]	≤ 500	≤ 50	≤ 500
CC(c1ccc(N2CCC[C@@H](NCC3CCC3)C2)nn1)n1cnc(-c2cncc(N(C)C)c2)c1 (stereo partly drawn) [Compound 173, 5-(1-(1-(6-((R)-3-((cyclobutylmethyl)amino)piperidin-1-yl)pyridazin-3-yl)ethyl)-1H-imidazol-4-yl)-N,N-dimethylpyridin-3-amine]	≤ 500	≤ 50	≤ 500
CN(C)c1cncc(-c2cn(Cn3ccc(N4CCC[C@@H](NCC5CC5)C4)cc3=O)nn2)c1 [Compound 174, (R)-4-(3-((cyclopropylmethyl)amino)piperidin-1-yl)-1-((4-(5-(dimethylamino)pyridin-3-yl)-1H-1,2,3-triazol-1-yl)methyl)pyridin-2(1H)-one]	≤ 500	≤ 50	≤ 500
CN(C)c1cncc(NC(=O)C2(c3ccc(N4CCC[C@@H](NCC5CC5)C4)cn3)COC2)c1 [Compound 175, (R)-3-(5-(3-((cyclopropylmethyl)amino)piperidin-1-yl)pyridin-2-yl)-N-(5-(dimethylamino)pyridin-3-yl)oxetane-3-carboxamide]	500 to 5000	≤ 50	500 to 5000
COc1cncc(-c2cn(C(C)c3ccc(N4CCC[C@@H](NCC5CCC5)C4)nn3)cn2)c1 (stereo partly drawn) [Compound 182, (3R)—N-(cyclobutylmethyl)-1-(6-(1-(4-(5-methoxypyridin-3-yl)-1H-imidazol-1-yl)ethyl)pyridazin-3-yl)piperidin-3-amine]	500 to 5000	≤ 50	≤ 500
CN(C)c1cncc(-c2cn(Cc3ccc(N4CCC[C@@H](NCC5CC5)C4)nn3)nn2)c1 [Compound 183, (R)-5-(1-((6-(3-((cyclopropylmethyl)amino)piperidin-1-yl)pyridazin-3-yl)methyl)-1H-1,2,3-triazol-4-yl)-N,N-dimethylpyridin-3-amine]	500 to 5000	≤ 50	≤ 500
CN(C)c1cncc(-c2cn(C3(c4ccc(N5CCC[C@@H](NCC6CC6)C5)cn4)COC3)nn2)c1 [Compound 184, (R)-5-(1-(3-(5-(3-((cyclopropylmethyl)amino)piperidin-1-yl)pyridin-2-yl)oxetan-3-yl)-1H-1,2,3-triazol-4-yl)-N,N-dimethylpyridin-3-amine]	≤ 500	≤ 50	≤ 500
c1cc(C2(n3cc(-c4cncc(N5CCCC5)n4)nn3)COC2)ncc1N1CCC[C@@H](NCC2CC2)C1 [Compound 185, (R)-N-(cyclopropylmethyl)-1-(6-(3-(4-(6-(pyrrolidin-1-yl)pyrazin-2-yl)-1H-1,2,3-triazol-1-yl)oxetan-3-yl)pyridin-3-yl)piperidin-3-amine]	≤ 500	≤ 50	≤ 500
CC(c1ccc(N2CCC[C@@H](NCC3CCC3)C2)cc1)n1cc(-c2cncc(N(C)C)c2)nn1 (stereo partly drawn) [Compound 189, 5-(1-(1-(4-((R)3-((cyclobutylmethyl)amino)piperidin-1-yl)phenyl)ethyl)-1H-1,2,3-triazol-4-yl)-N,N-dimethylpyridin-3-amine]	≤ 500	≤ 50	≤ 500
